Molecules are shown by their SMILES.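 Cultured in 96-well plates, cells were exposed to test compound for 48 hours across five concentrations. GI50 marks 50% less growth. TGI: concentration producing complete growth inhibition.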

Some test systems named below: SW-620 colon; NCI-H460 lung; A498 renal; COLO 205 colon; HOP-92 NSCLC; EKVX NSCLC; HCT-116 colon; RPMI-8226 leukemia; SF-539 CNS; LOX IMVI melanoma.
Holding throughout (assay): inhibition of tumour cell growth, NCI panel, 48 h

Consider `CCOC(=O)C(=O)Nc1cccc(C)c1C`, for which the TGI in the test on SW-620 colon, in the test with NCI-H460 lung, with A498 renal, with COLO 205 colon, in the test on HOP-92 NSCLC and in the test on EKVX NSCLC was more than 100 µM throughout. For the same compound, the TGI in the test with HCT-116 colon, with RPMI-8226 leukemia and in the test with SF-539 CNS was more than 100 µM in each case.

Consider `Cc1nc(N(CCO)CCO)c2sc(=S)n(-c3ccccc3)c2n1`, for which the TGI in the test on SW-620 colon, in the test on NCI-H460 lung, in the test on A498 renal, in the test on COLO 205 colon, in the test on HOP-92 NSCLC and in the test on HCT-116 colon was more than 100 µM throughout. Moreover, the TGI in the test with RPMI-8226 leukemia and in the test with SF-539 CNS was more than 100 µM each time.

Turning to `COC(=O)C1=C(O)C(C(=O)OC)[C@@]2(O)[C@@H](C(=O)OC)CC[C@@H]1[C@@H]2C(=O)OC` (stereo partly drawn), the TGI in the test with NCI-H460 lung was 35.9 µM; in the test with A498 renal, 55.4 µM; with EKVX NSCLC, 85.7 µM; with HCT-116 colon it was more than 100 µM; in the test with LOX IMVI melanoma, 76.8 µM; in the test on RPMI-8226 leukemia, 97.3 µM. For the same compound, in the test on SF-539 CNS, the TGI was determined as 46.1 µM.

For `BrC1=CN2C[n+]3cc(Br)c4ccccc4c3N=C2c2ccccc21`, the TGI in the test on SW-620 colon is more than 100 µM; in the test on NCI-H460 lung it was 32.9 µM; in the test on A498 renal, 70.9 µM; in the test on COLO 205 colon, 23.1 µM; in the test with HOP-92 NSCLC, 29.6 µM; with LOX IMVI melanoma, 34.2 µM. Also, the figures for the TGI in the test on RPMI-8226 leukemia and with SF-539 CNS were 30.5 µM and 25.7 µM, respectively.

As to `COc1cc(C2S/C(=C/c3ccccc3)C(=O)N2c2ccccc2Cl)cc(OC)c1OC` (stereo not drawn), the TGI in the test with A498 renal was more than 100 µM; with COLO 205 colon, more than 100 µM; in the test with HOP-92 NSCLC, more than 100 µM; with EKVX NSCLC, 50.8 µM; in the test on HCT-116 colon, 62.6 µM; in the test with LOX IMVI melanoma, 44.9 µM.

For the compound `CN(CCO)/N=N/c1nc[nH]c1C(N)=O`, the TGI with SW-620 colon, in the test with NCI-H460 lung, in the test with A498 renal, in the test with COLO 205 colon, in the test with HOP-92 NSCLC and in the test on EKVX NSCLC was more than 100 µM throughout. Further, the TGI in the test with HCT-116 colon, with LOX IMVI melanoma, in the test on RPMI-8226 leukemia and in the test on SF-539 CNS was more than 100 µM in each case.

On to `C/C([O-])=C(/c1nc(-c2ccc([N+](=O)[O-])o2)no1)[n+]1cc(C)ccc1C`, for which the TGI with SW-620 colon is 16.9 µM; in the test on NCI-H460 lung it was 17.5 µM; with A498 renal, 33.8 µM; in the test with COLO 205 colon it was 15 µM; with HOP-92 NSCLC, more than 100 µM; with EKVX NSCLC, more than 100 µM. In addition, the TGI with HCT-116 colon is 18.5 µM; in the test with LOX IMVI melanoma, 21.8 µM; in the test with RPMI-8226 leukemia, 55.2 µM; with SF-539 CNS, 27.6 µM.

Turning to `Cc1ccc(S(=O)(=O)Nc2cc(Sc3ccccc3)c(O)c3ccccc23)cc1`, the GI50 in the test on SW-620 colon is 3.91 µM; with NCI-H460 lung, 17.6 µM; with A498 renal, 13.1 µM; in the test with COLO 205 colon, 19.5 µM; in the test with HOP-92 NSCLC, 2.02 µM; with EKVX NSCLC, 12.3 µM. In addition, the GI50 was 3.13 µM with HCT-116 colon, 2.34 µM in the test on LOX IMVI melanoma, 3.4 µM in the test on RPMI-8226 leukemia and 3.19 µM with SF-539 CNS. Further, the TGI amounted to 16.2 µM in the test with SW-620 colon; 34.5 µM with NCI-H460 lung; 28.8 µM with A498 renal; 42.4 µM with COLO 205 colon; 4.57 µM in the test with HOP-92 NSCLC; 25.3 µM in the test with EKVX NSCLC. Also, the TGI in the test on HCT-116 colon is 11.5 µM; with LOX IMVI melanoma it was 7.96 µM; in the test on RPMI-8226 leukemia, 22.8 µM; in the test with SF-539 CNS, 9.51 µM.

`COc1cc(Cc2ccc3c(c2C#N)N(C)c2ccccc2S3)cc(OC)c1OC`: the TGI with SW-620 colon, in the test with NCI-H460 lung, with A498 renal, with COLO 205 colon, with HOP-92 NSCLC and with EKVX NSCLC was more than 100 µM in each case. Besides, the TGI in the test on HCT-116 colon was more than 100 µM; in the test on LOX IMVI melanoma, more than 100 µM; in the test on RPMI-8226 leukemia, more than 100 µM; in the test on SF-539 CNS it was 42.7 µM.

These data come from PubChem BioAssay (NCI).
